Read-outs that look alike come from different tables or passages of the source.
How the values were obtained:
S. marcescens = assay: Disc diffusion sensitivity test; type: cell-based, Serratia marcescens; conditions: S. marcescens; disc ~50 μg MP
Ps. aeruginosa = assay: Disc diffusion sensitivity test; type: cell-based, Pseudomonas aeruginosa; conditions: disc ~50 μg MP; also: key: -: resistant; N: not determined
N. meningitidis = assay: Disc diffusion sensitivity test; type: cell-based; conditions: disc ~50 μg MP
M. smegmatis [1] = type: cell-based, Mycobacterium smegmatis; conditions: for Minimal inhibitory concentration (MIC): M. smegmatis LR222, LB + Tween 80 (Table 2)
S. aureus [2] = assay: Disc diffusion sensitivity test; type: cell-based, Staphylococcus aureus; conditions: S. aureus; disc ~50 μg MP
S. crevisieae = assay: Disc diffusion sensitivity test; type: cell-based, Saccharomyces cerevisiae; conditions: S. cerevisiae; disc ~50 μg MP
Y. enterocolitica [3] = assay: Disc diffusion sensitivity test; type: cell-based; conditions: disc ~50 μg MP
E. faecalis = assay: Disc diffusion sensitivity test; type: cell-based, Enterococcus faecalis; conditions: disc ~50 μg MP; also: key: -: resistant; N: not determined
S. pyogenes A = assay: Disc diffusion sensitivity test; type: cell-based, Streptococcus pyogenes; conditions: disc ~50 μg MP
S. aureus [4] = type: cell-based, Staphylococcus aureus; conditions: methicillin-resistant S. aureus IR219; Nutrient broth (Table 2)
Y. enterocolitica [5] = assay: microbe, parasite or virus in culture; type: cell-based
M. bovis = type: cell-based, Mycobacterium bovis; conditions: disc ~50 μg MP
M. smegmatis [6] = assay: Disc diffusion sensitivity test; type: cell-based, Mycobacterium smegmatis; conditions: disc ~50 μg MP
B. subtilis = assay: Disc diffusion sensitivity test; type: cell-based, Bacillus subtilis; conditions: B. subtilis; disc ~50 μg MP
bacteria = type: cell-based
yeasts = assay: Yeast growth inhibition; type: cell-based
E. coli = assay: Disc diffusion sensitivity test; type: cell-based, Escherichia coli; conditions: E. coli; disc ~50 μg MP
M tuber. H37Rv = assay: Disc diffusion sensitivity test; type: cell-based, Mycobacterium tuberculosis; conditions: disc ~50 μg MP
C. freundii = assay: Disc diffusion sensitivity test; type: cell-based, Citrobacter freundii; conditions: C. freundii; disc ~50 μg MP
F. menigosepticum = assay: Disc diffusion sensitivity test; type: cell-based, Flavobacterium meningosepticum; conditions: F. meningosepticum; disc ~50 μg MP
M tuber. H37Pa = assay: Disc diffusion sensitivity test; type: cell-based, Mycobacterium tuberculosis; conditions: disc ~50 μg MP
K. oxytoca = assay: Disc diffusion sensitivity test; type: cell-based, Klebsiella oxytoca; conditions: K. oxytoca; disc ~50 μg MP
P. mirabills = assay: Disc diffusion sensitivity test; type: cell-based, Proteus mirabilis; conditions: P. mirabilis; disc ~50 μg MP
E. aerogenes = assay: Disc diffusion sensitivity test; type: cell-based, Enterobacter aerogenes; conditions: E. aerogenes; disc ~50 μg MP
K. pneumoniae = assay: Disc diffusion sensitivity test; type: cell-based, Klebsiella pneumoniae; conditions: K. pneumoniae; disc ~50 μg MP
M. tuberculosis = type: cell-based, Mycobacterium tuberculosis; conditions: pathogenic M. tuberculosis
M. avium = conditions: M. avium
S. aureus [7] = assay: Minimal bactericidal concentration; type: cell-based, Staphylococcus aureus; conditions: reduces plating efficiency more than 99.9%; minimal exposure to light
Experimental: Minimal bactericidal concentrations (MBCs) were determined essentially the same way as MICs except that the amount of killing with a particular concentration of porphyrin derivative was determined by plating on solid microbiological media (LB plates or LB+Tween 80). Media were solidified by the incorporation of 1.5% agar (Difco Laboratories). Concentrations of porphyrins that produced 99.9% reduction in bacterial counts were considered bactericidal [Hindler et al. (1994) supra].
MBC were determined by plating bacterial cultures that have been incubate
in the presence of MPs at concentrations higher than MIC. MBC was defined
as a concentration of a particular MP which reduces the plating efficienc
more than 99.9%. Experiments were done with minimal exposure to light
(addition of porphyrins waa done in the presence of artifical light).

M. smegmatis [8] = assay: Minimal bactericidal concentration; type: cell-based, Mycobacterium smegmatis; conditions: reduces plating efficiency more than 99.9%; minimal exposure to light
Y. enterocolitica [9] = assay: Minimal bactericidal concentration; type: cell-based; conditions: reduces plating efficiency more than 99.9%; minimal exposure to light
[10] = system: Streptococcus pyogenes JRS4; type: cell-based; conditions: S. pyogenes JRS4 (Table 4)

Compound	diameter (mm) of the inhibition zone (S. marcescens)	diameter (mm) of the inhibition zone (Ps. aeruginosa)	diameter (mm) of the inhibition zone (N. meningitidis)	Minimal inhibitory concentration (MIC) (M. smegmatis [1]) [µg/mL]	diameter (mm) of the inhibition zone (S. aureus [2])	diameter (mm) of the inhibition zone (S. crevisieae)	diameter (mm) of the inhibition zone (Y. enterocolitica [3])	diameter (mm) of the inhibition zone (E. faecalis)	diameter (mm) of the inhibition zone (S. pyogenes A)	Minimal inhibitory concentration (MIC) (S. aureus [4]) [µg/mL]	Minimal inhibitory concentration (MIC) (Y. enterocolitica [5])	diameter (mm) of the inhibition zone (M. bovis)	diameter (mm) of the inhibition zone (M. smegmatis [6])	diameter (mm) of the inhibition zone (B. subtilis)	also measured
C=Cc1c(C)c2cc3[nH]c(cc4nc(cc5nc(cc1[nH]2)C(C)=C5CCC(=O)[O-])C(CCC(=O)[O-])=C4C)c(C)c3C=C.[Co+2] [Co-PPIX]	-	-	-	20	15 mm	18 mm	-	-	-	40	20	-	-	-	
C=CC1=C(C)c2cc3[n-]c(cc4nc(cc5[n-]c(cc1n2)c(C)c5CCC(=O)O)C(CCC(=O)O)=C4C)c(C)c3C=C.[Cr+2] [Cr-PPIX]	-	-	-	20	10 mm	-	-	-	-	> 40	20	-	-	-	
CC1=C(CCC(=O)O)C2=Cc3c(C)c(CCC(=O)O)c4[n]3[Ga]([Cl])[n]3c(c(C)c(CCC(=O)O)c3=CC1=N2)=CC1=NC(=C4)C(C)=C1CCC(=O)O [Ga-COPI, Ga-coproporphyrin I]															antibacterial activity (bacteria): seriously limited in their antibacterial activities; inhibition of growth of yeast (yeasts): able to inhibit growth of yeast
O=C(O)CCC1=C(CC(=O)O)C2=Cc3c(CC(=O)O)c(CCC(=O)O)c4[n]3[Ga]([Cl])[n]3c(c(CCC(=O)O)c(CC(=O)O)c3=CC3=NC(=C4)C(CC(=O)O)=C3CCC(=O)O)=CC1=N2 [Ga-UPIII, Ga-uroporphyrin III]															antibacterial activity (bacteria): seriously limited in their antibacterial activities; inhibition of growth of yeast (yeasts): able to inhibit growth of yeast
O=S(=O)([O-])c1ccc(-c2c3nc(c(-c4ccc(S(=O)(=O)[O-])cc4)c4ccc([n-]4)c(-c4ccc(S(=O)(=O)[O-])cc4)c4nc(c(-c5ccc(S(=O)(=O)[O-])cc5)c5ccc2[n-]5)C=C4)C=C3)cc1.[Cl-].[Mn+3] [Mn-meso, Mnmeso-tetra(4-sulfonatophenyl)-porphine chloride]	-	-	-		-		-							-	antibacterial activity (bacteria; listed as Manganese (+2)-meso-tetra-4-sulfonatophenyl porphine): inactive; diameter (mm) of the inhibition zone (E. coli): -; diameter (mm) of the inhibition zone (M tuber. H37Rv): -; diameter (mm) of the inhibition zone (C. freundii): -; diameter (mm) of the inhibition zone (F. menigosepticum): -; diameter (mm) of the inhibition zone (M tuber. H37Pa): -; diameter (mm) of the inhibition zone (K. oxytoca): -; diameter (mm) of the inhibition zone (P. mirabills): -; diameter (mm) of the inhibition zone (E. aerogenes): -; diameter (mm) of the inhibition zone (K. pneumoniae): -
C=Cc1c2[n-]c(c1C)/C=c1\[n-]/c(c(C)c1C=C)=C\c1[n-]c(c(CCC(=O)O)c1C)C=c1[n-]/c(c(C)c1CCC(=O)O)=C\2.[Sn+4] [Sn-PPIX, tin-protoporphyrin IX]	-	-	-	20	-	-	-	-	-	> 40	20	-	-	-	
Indium (III) protoporphyrin IX chloride [In-PPIX]		-		0.4	15 mm		12 mm	-	13 mm	1.6	0.2				diameter (mm) of the inhibition zone (E. coli): -; sensitivity (preliminary experiments) (M. tuberculosis): sensitive; diameter (mm) of the inhibition zone (M tuber. H37Rv): -; diameter (mm) of the inhibition zone (C. freundii): 9 mm; antibacterial activity (M. smegmatis [1]; M. smegmatis): inhibitory; diameter (mm) of the inhibition zone (F. menigosepticum): -; diameter (mm) of the inhibition zone (M tuber. H37Pa): 17 mm; diameter (mm) of the inhibition zone (K. oxytoca): 9 mm; sensitivity (preliminary experiments) (M. avium): sensitive; diameter (mm) of the inhibition zone (P. mirabills): 9 mm; Minimal bactericidal concentration (MBC) (S. aureus [7]): > 13; diameter (mm) of the inhibition zone (E. aerogenes): 9 mm; diameter (mm) of the inhibition zone (K. pneumoniae): 9 mm; antibacterial activity (Y. enterocolitica [5]): inhibitory; Minimal bactericidal concentration (MBC) (M. smegmatis [8]): 10; Minimal bactericidal concentration (MBC) (Y. enterocolitica [9]): > 13; MIC [10]: 0.1 µg/mL

Reference: US6066628A, “Non-iron metalloporphyrins and methods of use” (Emory University, priority 1998, dated 2000)
